In brackets after ≈: the same amount, converted by molar mass. Where a SMILES comes first, the peptide text is derived from it. Bridges are numbered along the chain shown (N, C = ends). The star is where a group is joined. Lauroyl = CCCCCCCCCCCC(=O)*; Octanoyl = CCCCCCCC(=O)*

The values below come from publication PMC9696794, “Synthesis and Antimicrobial Activity of Short Analogues of the Marine Antimicrobial Peptide Turgencin A: Effects of SAR Optimizations, Cys-Cys Cyclization and Lipopeptide Modifications” (International Journal of Molecular Sciences, 2022).

One series has as its system E. coli MC4100 (WT). Nature of the series: Outer membrane permeability assay (NPN uptake fluorescence). The class given is cell-based, Escherichia coli. Here is the method: The outer membrane of Gram-negative bacteria acts as a barrier for many hydrophobic and larger hydrophilic substances (>600 Da). However, some peptides can sensitize the outer membrane and thus facilitate the entry of various hydrophobic molecules. To explore if the peptides affect the outer membrane of E. coli MC4100, C12-cTurg-1 and C8-cTurg-2 were tested for their ability to enable the entry of the hydrophobic fluorescent probe 1-N-phenylnapthylamine (NPN, MW of 219 Da) (Figure 5). […] Normally, the hydrophobic NPN is excluded by E. coli bacteria, but it can enter the bacteria once the integrity of the outer membrane is compromised. […] Thus, the observed effects indicate that the outer membrane passage of C8-cTurg-2 was a rate-limiting step that was most likely preventing the peptide from reaching and accumulating in the inner membrane.
The permeability of the E. coli outer membrane was analysed by measuring increased fluorescence as kinetics of 1-N-phenylnaphthylamine (NPN, Sigma-Aldrich) uptake following the protocol described by, with minor modifications. Briefly, a single colony of E. coli MC4100 (WT) was suspended in MH medium and incubated overnight at 37 °C with shaking (225 rpm). The culture was diluted in MH medium and adjusted to OD600 = 0.1 and incubated at 37 °C until it reached an OD600 of 0.5. The cells were centrifuged and washed twice with an assay buffer (5 mM HEPES, 5 mM glucose, pH 7.2) and resuspended in the same buffer to a final OD600 of 1.0. E. coli MC4100 cells were mixed with 20 µM NPN. The assay set up was the same as for the membrane integrity and viability assay, using black round-bottom 96-well microtiter plates (Nunc) containing 10 µL of 2-fold dilutions of peptides (500 to 31.2 µg/mL). A volume of 90 µL of cell suspension with NPN was added to each well by the automated injector of the Synergy H1 Hybrid Reader. The fluorescence was immediately measured (well by well) at an excitation wavelength of 350 nm and an emission wavelength of 420 nm every second for 3 min. The relative fluorescence was calculated by normalizing the values from each time point with the negative control (Milli-Q water). CHX was included as a positive control.

The test system of series [1] is S. aureus (Sa, ATCC 9144). The series is described as follows: microbe, parasite or virus in culture. Type of series: cell-based, Staphylococcus aureus. As to conditions: for Antimicrobial Activity (MIC) Gram + Sa: ATCC 9144, 24 h. The essentials: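 Cultures grown in Mueller–Hinton broth were adjusted by OD600 to 2.5–3 × 10^4 CFU/mL and mixed with two-fold peptide dilutions from 256 to 1 µg/mL. Plates were incubated at 35 °C with OD595 monitored every hour for 24 h.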

The test system of the next series is A. pullulans (Ap). The series is described as follows: microbe, parasite or virus in culture. The class given is cell-based, Aurobasidium pollulans. The conditions noted are these: 48 h. The method, boiled down: (§1)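 Overnight cultures in potato dextrose broth with 2% glucose at 25–30 °C were diluted to approx. 4 × 10^5 spores/mL and mixed 1:1 with two-fold peptide dilutions plated at 256 to 1 µg/mL. After 48 h at room temperature, OD600 was read. MIC was the lowest concentration giving OD below 10% of the growth control, in triplicate.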

Series [2] has as its system E. coli MC4100 (wild type, WT). Nature of the series: microbe, parasite or virus in culture. As to conditions: for MIC E. coli MC4100 (WT): wild type. The essentials:
(§2)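 Broth microdilution in Mueller–Hinton medium, 2.5–3 × 10^4 CFU/mL inoculum, two-fold peptide dilutions from 256 to 1 µg/mL, 35 °C with OD595 read hourly for 24 h. MIC is the lowest concentration giving OD below 10% of the untreated growth control; run in triplicate.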

In series [3] the test system is E. coli NR698 (outer membrane permeable mutant, imp4213). The series is described as follows: microbe, parasite or virus in culture. As to conditions: for MIC E. coli NR698 (mutant): MC4100 NR698 imp4213, deficient outer membrane. The essentials:
as §2

Series [4] relates to C. albicans (Ca, ATCC 10231). The series is described as follows: microbe, parasite or virus in culture. Type of series: cell-based, Candida albicans. As to conditions: for Antimicrobial Activity (MIC) Fungi Ca: ATCC 10231, 48 h. The essentials: as §1
For the next series, the system named is Rhodotorula sp. (Rh). The series is described as follows: microbe, parasite or virus in culture. The class given is cell-based. The conditions noted are these: 48 h. The essentials:
as §1

The test system of another series is all bacterial strains. Nature of the series: Antibacterial MIC assay, all bacterial strains together (range or geometric mean). The conditions noted are these: for GM (geometric mean of the MIC values against all bacterial strains): Table 1, six bacterial strains; for GM of MIC Tot. bact.: Table S3, all bacterial test strains, MIC >256 set to 256. The class given is cell-based. The essentials: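 Broth microdilution in Mueller–Hinton broth against B. subtilis, C. glutamicum, S. aureus, S. epidermidis RP62A, E. coli and P. aeruginosa; inoculum 2.5–3 × 10^4 CFU/mL, 35 °C, OD595 read hourly for 24 h. MIC: lowest peptide concentration giving OD below 10% of growth control; geometric mean across strains, triplicate.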

As to `[H]/N=C(\N/C(=N/[H])NCCCCCCNC(=N)NC(=N)Nc1ccc(Cl)cc1)Nc1ccc(Cl)cc1` [Chlorhexidine, reference compound], the “effect on NPN fluorescence (outer membrane permeabilization)” value (shortened to “effect on NPN fluorescence”) in the series on E. coli MC4100 (WT) (E. coli MC4100, 20 µM NPN, 3 min) is listed as “increase the NPN fluorescence in a concentration-dependent manner”. Besides, the MIC was found to be 1.6 µg/mL in series [1] (Staphylococcus aureus, ATCC9144, S. aureus ATCC 9144, 24 h, read-out: Antimicrobial Activity (MIC) Gram + Sa); 1 µg/mL in the series on A. pullulans (Ap) (Aureobasidium pullulans, A. pullulans, read-out: Antimicrobial Activity (MIC) Fungi Ap); 0.3 µg/mL (≈ 0.594 µM) in series [2] (Escherichia coli, read-out: MIC E. coli MC4100 (WT)); 0.3 µg/mL (≈ 0.594 µM) in series [3] (Escherichia coli, read-out: MIC E. coli NR698 (mutant)); 7.8 µg/mL in series [4] (Candida albicans, ATCC10231, C. albicans ATCC 10231, 48 h, read-out: Antimicrobial Activity (MIC) Fungi Ca); 1 µg/mL with Rhodotorula sp. (Rh) (Rhodotorula sp., read-out: Antimicrobial Activity (MIC) Fungi Rh). For the same compound, in the series on all bacterial strains (read-out: GM (geometric mean of the MIC values against all bacterial strains)), the MIC stood at 20 µg/mL (≈ 39.6 µM).

In the case of `CCCCCCCC(=O)N[C@H]1CSSC[C@@H](C(=O)N[C@@H](CCCCN)C(=O)N[C@@H](CC(C)C)C(N)=O)NC(=O)[C@H](CCCCN)NC(=O)[C@H](Cc2c[nH]c3ccccc23)NC(=O)CNC(=O)[C@H](Cc2c[nH]c3ccccc23)NC(=O)[C@H](Cc2c[nH]c3ccccc23)NC(=O)[C@H](CCCCN)NC(=O)[C@H](CCCCN)NC(=O)CNC1=O` [Peptide C8-cTurg-2, C8- (CGKKWWGWKC)KL-NH2] (Octanoyl-CGKKWWGWKCKL-NH2; disulfide 1-10), the “effect on NPN fluorescence” value with E. coli MC4100 (WT) (not told) is “increase the NPN fluorescence in a concentration-dependent manner”. The “Antimicrobial Activity (MIC) Gram + Sa” value in series [1] was found to be 4 µg/mL. In addition, the “Antimicrobial Activity (MIC) Fungi Ap” value with A. pullulans (Ap) turned out to be 16 µg/mL. Besides, the “MIC E. coli MC4100 (WT)” value in series [2] is recorded as 8 µg/mL (≈ 4.86 µM). For the same compound, in series [3], the “MIC E. coli NR698 (mutant)” value is 2 µg/mL (≈ 1.21 µM). For the same compound, the “Antimicrobial Activity (MIC) Fungi Ca” value in series [4] is listed as 32 µg/mL. Also, the “Antimicrobial Activity (MIC) Fungi Rh” value with Rhodotorula sp. (Rh) turned out to be 4 µg/mL. Also, in the series on all bacterial strains, the “GM (geometric mean of the MIC values against all bacterial strains)” value is given as 4 µg/mL and the “GM of MIC Tot. bact.” value was 4 µg/mL.

Consider `CCCCCCCCCCCC(=O)N[C@H]1CSSC[C@@H](C(=O)N[C@@H](CCCCN)C(=O)N[C@@H](CC(C)C)C(N)=O)NC(=O)[C@H](CCCCN)NC(=O)[C@H](Cc2c[nH]c3ccccc23)NC(=O)CNC(=O)CNC(=O)[C@@H]2CCCN2C(=O)[C@H](CCCCN)NC(=O)[C@H](CCCCN)NC(=O)CNC1=O` [Peptide C12-cTurg-1, C12 -(CGKKPGGWKC)KL-NH2] (Lauroyl-CGKKPGGWKCKL-NH2; disulfide 1-10), for which the “increase in NPN fluorescence” value in the series on E. coli MC4100 (WT) (E. coli MC4100, 25 to 50 µg/mL) is “almost a four-fold increase”. The “effect on NPN fluorescence” value with E. coli MC4100 (WT) (not told) was “increase the NPN fluorescence in a concentration-dependent manner”. The “Antimicrobial Activity (MIC) Gram + Sa” value in series [1] is given as 4 µg/mL. Also, in the series with A. pullulans (Ap), the “Antimicrobial Activity (MIC) Fungi Ap” value was determined as 32 µg/mL. In addition, in series [2], the “MIC E. coli MC4100 (WT)” value is listed as 4 µg/mL (≈ 2.7 µM). Besides, the “MIC E. coli NR698 (mutant)” value in series [3] is 2 µg/mL (≈ 1.35 µM). Further, the “Antimicrobial Activity (MIC) Fungi Ca” value in series [4] is listed as 64 µg/mL. In addition, in the series on Rhodotorula sp. (Rh), the “Antimicrobial Activity (MIC) Fungi Rh” value worked out at 4 µg/mL. For the same compound, in the series on all bacterial strains, the “GM (geometric mean of the MIC values against all bacterial strains)” value is listed as 4 µg/mL and the “GM of MIC Tot. bact.” value came to 4 µg/mL.
